Data set [1] deals with A. baumannii 1757. Description: Zebrafish larvae infection model. The conditions noted are these: rifampicin / erythromycin experiment (Table S8); infected larvae, caudal vein injection, five days post infection; mean of three independent experiments.
Protocol: Transparent Casper zebrafish (Danio rerio) larvae were infected and treated according to protocols described by Van der Sar et al. and Bernard et al. [43, 44]. In short, zebrafish larvae collected from a laboratory-breeding colony kept at 24 °C and a 12:12 h dark/light regime. Larvae were selected based on morphology according to hours post fertilization (hpf) and kept at 28 °C. All protocols followed the international guidelines on the protection of animals used for scientific purposes specified by the EU Directive 2010/63/EU, which allows zebrafish larvae to be used up to the moment of free-living (5–7 dpf). Larvae were dechorionated at 28 hpf and anaesthetized in 0.2% tricaine methanesulfonate (MS222, Fluka A-5040). Larvae were individually infected with 1 nL, containing approximately 100–150 CFU (1–1.5 CFU/mL), of Gram-negative bacteria via microinjection of the caudal vein as described previously [33]. One hour post infection, larvae were treated with cationic (stapled) peptides, antibiotics or a combination of the two via another microinjection of 1 nL in the caudal vein. […] Zebrafish larvae were kept at 30 °C throughout the experiment and survival of the larvae, based on heartbeat, was determined every 24 h for 5 days.
The next data set deals with sheep red blood cells. The settings on record: sheep RBCs in DMEM, 1 h, 32 °C, OD405; relative to 1% Triton-X100; negative control polymyxin B nonapeptide. The protocol:
Defibrinated sheep blood was purchased from BioTrading (LOT 21118SG66, Mijdrecht, The Netherlands) and kept at 4 °C. As previously described by Phan et al., red blood cells (RBCs) were pelleted by centrifugation at 600× g for 7 min at 4 °C and gently resuspended in phenol red-free Dulbecco’s Modified Eagle Medium (DMEM, Gibco 21063-029, ThermoFisher Scientific, Waltham MA, United States). This was repeated five times until the supernatant appeared colorless. In the meantime, 10-fold dilution series of the peptides at 50 μM, 5 μM and 0.5 μM in 50 µl DMEM, 1% DMSO were made in polypropylene microtiter plates (Ratiolab, L6018123, Dreieich, Germany). Triton-X100 (1%, Sigma-Aldrich T-8787) and DMSO (10%, Sigma-Aldrich D-8418) were used as positive and negative controls, respectively. Polymyxin B (Sigma-Aldrich, p-1411) and polymyxin B nonapeptide (Sigma-Aldrich, p-2076) were used as reference lytic and non-lytic peptides. Then, 50 µL of RBCs was added to each well. The plate was sealed and incubated at 5% CO2 for one hour at 32 °C, after which the plate was centrifuged at 610× g for 5 min at room temperature. Next, 70 µL supernatant was removed and transferred to a flat-bottomed polystyrene microtiter plate (Costar, REF3779) and the OD405, as a measure of released hemoglobin, was determined using a microplate reader (Synergy H1 Multi-Mode Reader or Synergy HTX Multi-Mode Reader, BioTek). Percentage of hemolysis was calculated using the following equation: (2) % hemolysis=(absorbance test sample)-(absorbance diluent)/(absorbance positive control)-(absorbance diluent)

A short description of a further data set: circular dichroism. The settings on record: 5 mM sodium phosphate; pH 7.5; 20 °C; 7.5 uM.
The conditions of data set [2]: normal pooled human serum, 100 µM peptide from 10 mM DMSO stock, 37 °C, samples at 0, 15, 60 min, TCA precipitation, LC-MS TIC vs carbamazepine internal standard, triplicate; Figure 2C. The protocol:
The stability measurements were performed in normal pooled human serum (PHS). The respective peptide was diluted to a final concentration of 100 μM in the aforementioned human serum (from 10 mM peptide stocks in DMSO). Then, 100 μM Carbamazepine was used as an internal standard; 60 μL of aforementioned peptide/Carbamazepine solution in PHS was incubated for 1h at 37 °C/750 rpm and 20 μL samples were taken after 0 min, 15 min and 60 min. Next, 1.5 μL of TCA was added to the sample to precipitate serum proteins. The samples were subsequently incubated on ice for 10 min and then centrifuged (12,000× g, 10 min). Then, 5 μL of supernatant was diluted in 20 μL of H2O/MeCN + 0.1% TFA. The sample was subsequently analyzed by LCMS on an Nucleodur C4-column (Macherey Nagel CC125/4 Nucleodur C4 Gravity, 5 µm) using a linear aqueous MeCN gradient containing FA (0.1%, v/v) and TFA (0.01%, v/v) as ion pair reagent (5–95%, 8 min). Peptides were quantified using the total ion count (TIC) of selected molecular ions. Remaining peptide quantities were calculated by normalizing the peptide peak areas using the internal standard peak areas and subsequently comparing the obtained value with the 0 min measurement. All measurements were performed in triplicate.

The test system of data set [3] is A. baumannii 1757. Kind of data set: MIC / checkerboard synergy assay (also with added LPS). In kind it is cell-based, Acinetobacter baumannii. How it is done:
(§1) Minimum inhibitory concentrations of the peptides and antibiotics were determined according to the protocol described by Wiegand et al.. Briefly, two-fold dilution series of cationic peptides in 50 µL volume of LB broth containing 2% DMSO were made in polypropylene 96-well microtiter plates (Ratiolab, L6018123, Dreieich, Germany). The optical density at 600 nm (OD600) of growing bacterial cultures was followed, and at mid-log-phase (OD600 ~0.4–0.5) cultures were diluted to OD600 0.02 and 50 µL was added to the wells, resulting in a total volume of 100 µl, an OD600 of ~0.01 and a DMSO concentration of 1%. An OD600 of ~0.01 accounted for approximately 3 × 10^8 colony forming units per mL (CFU/mL) for A. baumannii, 1 × 10^7 CFU/mL for E. coli and 5 × 10^7 CFU/mL for K. pneumoniae as determined by plate counting.
(§2) In a similar manner, two-fold dilution series of antibiotics were made in polystyrene microtiter plates (Costar, REF3779, Corning NY, United States) in 70 µL volume of LB broth. Then, 50 µL of the antibiotic series was transferred to the peptide containing polypropylene plate, resulting in a checkerboard titration of a peptide on the vertical axis and an antibiotic on the horizontal axis. To some checkerboard assays 15 µg/mL isolated smooth (sm) LPS (from E. coli O55:B5, Sigma-Aldrich, L2880), rough (Ra) LPS (from E. coli EH100, Sigma-Aldrich, L9641) or deep rough (Rd) LPS (from E. coli F583, Sigma-Aldrich, L6893) LPS was added to the LB broth. Mid-log phase cultures were diluted to OD600 0.1 and 10 µL culture was added to each well of the microtiter plate, resulting in a total volume of 110 µL and an OD600 of ~0.01 (~3 × 10^8 CFU/mL), and the OD600 was measured every 15 min for 12 h using the microplate reader. First, the MIC values of the antibiotics alone and the MIC values of the peptides alone were determined as described previously. Similarly, the MIC values of the antibiotics in combination with the different peptides and the MIC values of the peptides in combination with the antibiotics were determined (the fractional inhibitory concentrations (FIC)). […] An FICindex between 0.5 and 1 was considered to be an additive effect.

The test system of a further data set is zebrafish larvae. Description: Toxicity in zebrafish larvae (survival after caudal vein injection). The conditions noted are these: survival of uninfected larvae vs vehicle (50% DMSO), five days.
In the next data set the test system is E. coli gsk12. Kind of data set: MIC / checkerboard synergy assay. In kind it is cell-based, Escherichia coli. The protocol:
as §1
(§3) In a similar manner, two-fold dilution series of antibiotics were made in polystyrene microtiter plates (Costar, REF3779, Corning NY, United States) in 70 µL volume of LB broth. […] Mid-log phase cultures were diluted to OD600 0.1 and 10 µL culture was added to each well of the microtiter plate, resulting in a total volume of 110 µL and an OD600 of ~0.01 (~3 × 10^8 CFU/mL), and the OD600 was measured every 15 min for 12 h using the microplate reader. First, the MIC values of the antibiotics alone and the MIC values of the peptides alone were determined as described previously. […]

A further data set concerns A. baumannii 1681. Description: MIC / checkerboard synergy assay. In kind it is cell-based, Acinetobacter baumannii. The conditions noted are these: Acinetobacter baumannii, 1681, 12 h; read-out: MIC (compound alone). How it is done:
as §1, §2

The next data set concerns A. baumannii 2196. Kind of data set: MIC / checkerboard synergy assay. Format: cell-based, Acinetobacter baumannii. The conditions noted are these: Acinetobacter baumannii, 2196, 12 h; read-out: MIC (compound alone). How it is done:
as §1, §2

A further data set concerns K. pneumoniae 613. Description: MIC / checkerboard synergy assay. Format: cell-based, Klebsiella pneumoniae. The settings on record: Klebsiella pneumoniae, 613, 12 h; read-out: MIC (compound alone). The protocol:
as §1, §2

A further data set relates to K. pneumoniae 94. Description: MIC / checkerboard synergy assay. The settings on record: Klebsiella pneumoniae, 94, 12 h; read-out: MIC (compound alone). In kind it is cell-based, Klebsiella pneumoniae. The protocol:
as §1, §2

The test system of another data set is K. pneumoniae 821. Description: MIC / checkerboard synergy assay. In kind it is cell-based, Klebsiella pneumoniae. The conditions noted are these: Klebsiella pneumoniae, 821, 12 h; read-out: MIC (compound alone). The protocol:
as §1, §2

Another data set concerns E. coli 31. Kind of data set: MIC / checkerboard synergy assay. In kind it is cell-based. The conditions noted are these: Escherichia coli, 31, 12 h; read-out: MIC (compound alone). The protocol: as §1, §3
The mark [4] stands for this setting: compound alone, LB broth, MIC = 90% of growth prevented, OD600 over 12 h, mean ± SD.

The structures appear in SMILES notation. Like-named read-outs stand apart in the source and are kept apart here. Bridge positions count the residues as written; N and C are the ends. Square brackets hold non-standard residues; d marks the D form. Peptide text beside a SMILES is read from it. R8 = C=CCCCCCC[C@@](C)(N)C(=O)O; S5 = C=CCCC[C@](C)(N)C(=O)O

As for `CC[C@H]1OC(=O)[C@H](C)[C@@H](O[C@H]2C[C@@](C)(OC)[C@@H](O)[C@H](C)O2)[C@H](C)[C@@H](O[C@@H]2O[C@H](C)C[C@H](N(C)C)[C@H]2O)[C@](C)(O)C[C@@H](C)C(=O)[C@H](C)[C@@H](O)[C@]1(C)O` [Erythromycin, erythromycin], the “Survival (%)” value with A. baumannii 1757 [1] is 0.01%.
In the case of `CC[C@H](C)[C@@H]1NC(=O)[C@H](CCCNC(=N)N)NC(=O)[C@H](CCC(N)=O)NC(=O)[C@](C)(NC(=O)[C@@H](NC(=O)[C@H](CCCNC(=N)N)NC(=O)[C@@H](N)CCCCN)[C@@H](C)CC)CCCCCCC=CCCC[C@@](C)(C(=O)N[C@@H](CCCNC(=N)N)C(N)=O)NC(=O)[C@H](Cc2c[nH]c3ccccc23)NC(=O)[C@H](CCCCN)NC(=O)[C@H](CCCCN)NC1=O` [Peptide L8S3] (H-KRI[R8]QRIKKW[S5]R-NH2; staple 4-11), in the data set on sheep red blood cells, the “hemolysis at 50 µM” value is “significantly more hemolytic to the RBCs than the negative control”. Moreover, the helicity in “circular dichroism” was found to be 25%. For the same compound, the “stability in human serum (in words)” value in data set [2] is “highest stabilities”. In addition, the “MIC (compound alone)” value with A. baumannii 1757 [3] (setting [4]) was 0.57 ± 0.23 µM. In addition, the “Log2FoldChange compared to vehicle injected” value in the data set with zebrafish larvae is given as -0.08.
For the compound `CN[C@H](CC(C)C)C(=O)N[C@H]1C(=O)N[C@@H](CC(N)=O)C(=O)N[C@H]2C(=O)N[C@H]3C(=O)N[C@H](C(=O)N[C@H](C(=O)O)c4cc(O)cc(O)c4-c4cc3ccc4O)[C@H](O)c3ccc(c(Cl)c3)Oc3cc2cc(c3O[C@@H]2O[C@H](CO)[C@@H](O)[C@H](O)[C@H]2O[C@H]2C[C@](C)(N)[C@H](O)[C@H](C)O2)Oc2ccc(cc2Cl)[C@H]1O` [Vancomycin, vancomycin], the MIC stood at 5.98 ± 4.55 µM in the data set on A. baumannii 1757 [3] (Acinetobacter baumannii, 1757, 12 h, read-out: MIC (compound alone)); 5.66 ± 4.15 µM in the data set on A. baumannii 1757 [3] (Acinetobacter baumannii, 1757, LB medium with soluble deep rough LPS 15 µg/ml, mean ± SD, read-out: MIC, + Rd-LPS (F583)); 9.86 ± 7.36 µM in the data set on A. baumannii 1757 [3] (Acinetobacter baumannii, 1757, LB medium with soluble rough LPS 15 µg/ml, mean ± SD, read-out: MIC, + Ra-LPS (EH100)); 5.88 ± 3.56 µM in the data set on A. baumannii 1757 [3] (Acinetobacter baumannii, 1757, LB medium with soluble smooth LPS 15 µg/ml, mean ± SD, read-out: MIC, + Sm-LPS (055:B5)); 3.03 ± 2.52 µM in the data set with A. baumannii 1757 [3] (Acinetobacter baumannii, 1757, LB medium without supplement (Table S4), mean ± SD, read-out: MIC, No supplement); 78.7 ± 5.3 µM in the data set on E. coli gsk12 (Escherichia coli, GSK12, 12 h, read-out: MIC (compound alone)). The MIC with A. baumannii 1681 was 19 ± 4.56 µM; with A. baumannii 2196 it was 34.7 ± 24 µM; in the data set with K. pneumoniae 613, 269 ± 140 µM; in the data set with K. pneumoniae 94, 263 ± 180 µM; in the data set with K. pneumoniae 821, 197 ± 194 µM; with E. coli 31, 24.5 ± 8.81 µM. In addition, the “MIC (compound alone)” value with E. coli gsk12 (setting [4]) turned out to be 78.65 ± 5.3 µM. Besides, the “Log2FoldChange compared to vehicle injected” value in the data set with zebrafish larvae was -0.26.
